Experimental data published in US20160272617A1, “SUBSTITUTED PHENYLALANINE DERIVATIVES” (BAYER PHARMA AKTIENGESELLSCHAFT, priority 2013, published 2016).
Where a name gives a salt, the structure may show the parent alone.

How the values were obtained:
human and animal plasma = test: Determination of anticoagulatory activity: activated partial thromboplastin time (aPTT) in plasma; settings: concentration of test substance which brings about a 1.5-fold extension of the aPTT; plasma species not given
Method: The anticoagulatory activity of the test substances is determined in vitro in human and animal plasma (for example mouse, rat, rabbit, pig and dog plasma). To this end, blood is drawn off in a mixing ratio of sodium citrate/blood of 1:9 using a 0.11 molar sodium citrate solution as receiver. Immediately after the blood has been drawn off, it is mixed thoroughly and centrifuged at about 4000 g for 15 minutes. The supernatant is pipetted off.
The activated partial thromboolastin time (aPTT) is determined in the presence of varying concentrations of test substance or the corresponding solvent using a commercial test kit (C. K. Prest from Diagnostica Stago). The test compounds are incubated with the plasma and the PTT reagent (cephalin, kaolin) at 37° C. for 3 minutes. Coagulation is then started by addition of a 25 mM aqueous calcium chloride solution, and the time when coagulation occurs is determined. The concentration of test substance which brings about a 1.5-fold extension of the aPTT is determined.

human factor XIa = molecular target: T1, human factor XIa (Homo sapiens, UniProt P03951); test: Measurement of FXIa inhibition (fluorogenic peptide substrate Boc-Glu(OBzl)-Ala-Arg-AMC); format: biochemical; settings: factor XIa from Kordia, 15 min preincubation, 30 min at 22° C., fluorescence
T1 construct: purchased Kordia
T1 sequence (P03951 388-625 limits assumed): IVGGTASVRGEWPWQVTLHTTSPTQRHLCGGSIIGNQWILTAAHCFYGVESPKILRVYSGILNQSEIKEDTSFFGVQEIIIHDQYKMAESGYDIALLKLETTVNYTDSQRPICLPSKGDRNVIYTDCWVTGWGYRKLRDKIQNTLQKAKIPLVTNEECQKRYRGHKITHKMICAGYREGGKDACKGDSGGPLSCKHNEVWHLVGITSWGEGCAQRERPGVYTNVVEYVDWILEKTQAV
T1 sequence (P03951 19-387 partner limits assumed): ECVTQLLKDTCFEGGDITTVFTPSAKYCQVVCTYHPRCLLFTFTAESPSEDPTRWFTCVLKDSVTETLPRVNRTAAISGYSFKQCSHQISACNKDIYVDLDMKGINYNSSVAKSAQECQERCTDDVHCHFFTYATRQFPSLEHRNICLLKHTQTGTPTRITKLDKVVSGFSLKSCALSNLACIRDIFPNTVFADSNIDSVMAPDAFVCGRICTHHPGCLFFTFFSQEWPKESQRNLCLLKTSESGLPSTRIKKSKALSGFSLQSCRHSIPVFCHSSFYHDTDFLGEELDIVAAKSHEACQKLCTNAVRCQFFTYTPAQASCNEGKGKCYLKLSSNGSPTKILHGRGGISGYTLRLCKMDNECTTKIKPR
Method: The factor XIa inhibition of the inventive substances is determined using a biochemical test system which utilizes the reaction of a peptidic factor XIa substrate to determine the enzymatic activity of human factor XIa. Here, factor XIa cleaves from the peptic factor XIa substrate the C-terminal aminomethylcoumarin (AMC), the fluorescence of which is measured. The determinations are carried out in microtitre plates.
Test substances are dissolved in dimethyl sulphoxide and serially diluted in dimethyl sulphoxide (3000 μM to 0.0078 μM; resulting final concentrations in the test: 50 μM to 0.00013 μM). In each case 1 μl of the diluted substance solutions is placed into the wells of white microtitre plates from Greiner (384 wells). Subsequently, the following are added successively: 20 μl of assay buffer (50 mmol/l Tris buffer pH 7.4; 100 mmol/l sodium chloride; 5 mmol/l calcium chloride; 0.1% bovine serum albumin) and 20 μl of factor XIa from Kordia (0.45 nM in assay buffer). After 15 min of incubation, the enzyme reaction is started by addition of 20 μl of the factor XIa substrate Boc-Glu(OBzl)-Ala-Arg-AMC dissolved in assay buffer (10 μM in assay buffer) from Bachem, the mixture is incubated at room temperature (22° C.) for 30 min and fluorescence is then measured (excitation: 360 nm, emission: 460 nm). The measured emissions of the test mixtures with test substance are compared to those of control mixtures without test substance (only dimethyl sulphoxide instead of test substance in dimethyl sulphoxide), and the IC50 values are calculated from the concentration/activity relationships.

Structure (SMILES)	aPTT (human and animal plasma)	IC50 (human factor XIa)
Cc1cc(C(=O)NC2CCC3NCCC32)ccc1-c1ccc(C[C@H](NC(=O)[C@H]2CC[C@H](CN)CC2)C(=O)Nc2ccc(-c3nnc(C(F)(F)C(F)(F)C(=O)O)[nH]3)cc2)cc1 (stereo partly drawn) [Example 115, 3-{5-[4-({(2S)-2-({[trans-4-(Aminomethyl)cyclohexyl]carbonyl}amino)-3-[2′-methyl-4′-(octahydrocyclopenta[b]pyrrol-4-ylcarbamoyl)biphenyl-4-yl]propanoyl}amino)phenyl]-4H-1,2,4-triazol-3-yl}-2,2,3,3-tetrafluoropropanoic acid hydrochloride]	0.09 µmol/L	2.3 nM
NC[C@H]1CC[C@H](C(=O)N[C@@H](Cc2ccc(-c3cc(F)c(C(=O)NC4CCNCC4)c(F)c3)cc2)C(=O)Nc2ccc(-c3nn[nH]n3)cc2)CC1 [Example 118, hydrochloride]	0.11 µmol/L	2.9 nM
Cc1cc(C(=O)NCCCN(C)C)ccc1-c1ccc(C[C@H](NC(=O)[C@H]2CC[C@H](CN)CC2)C(=O)Nc2ccc(-c3nn[nH]n3)cc2)cc1 [Example 35, 4′-[(2S)-2-({[trans-4-(Aminomethyl)cyclohexyl]carbonyl}amino)-3-oxo-3-{[4-(2H-tetrazol-5-yl)phenyl]amino}propyl]-N-[3-(dimethylamino)propyl]-2-methylbiphenyl-4-carboxamide hydrochloride]	0.11 µmol/L	2.3 nM
Cc1cc(C(=O)NCC[N+](C)(C)C)ccc1-c1ccc(C[C@H](NC(=O)[C@H]2CC[C@H](CN)CC2)C(=O)Nc2ccc(-c3nn[nH]n3)cc2)cc1 [Example 41, 2-[({4′-[(2S)-2-({[trans-4-(Aminomethyl)cyclohexyl]carbonyl}amino)-3-oxo-3-({[4-(2H-tetrazol-5-yl)phenyl]amino}propyl]-2-methylbiphenyl-4-yl}carbonyl)amino]-N,N,N-trimethylethanaminium hydrochloride]	0.18 µmol/L	6 nM
Cc1cc(C(=O)NC2CCCNC2=O)ccc1-c1ccc(C[C@H](NC(=O)[C@H]2CC[C@H](CN)CC2)C(=O)Nc2ccc3cn[nH]c3c2)cc1 (stereo partly drawn) [Example 143, 4′-[(2S)-2-({[trans-4-(Aminomethyl)cyclohexyl]carbonyl}amino)-3-(1H-indazol-6-ylamino)-3-oxopropyl]-2-methyl-N-(2-oxopiperidin-3-yl)biphenyl-4-carboxamide hydrochloride]	0.07 µmol/L	2.3 nM
COCCOCCOCCOCCNC(=O)c1ccc(-c2ccc(C[C@H](NC(=O)[C@H]3CC[C@H](CN)CC3)C(=O)Nc3ccc(-c4nn[nH]n4)cc3)cc2)c(Cl)c1 [Example 26, 4′-[(2S)-2-({[trans-4-(Aminomethyl)cyclohexyl]carbonyl}amino)-3-oxo-3-{[4-(2H-tetrazol-5-yl)phenyl]amino}propyl]-2-chloro-N-(2,5,8, 11-tetraoxatridecan-13-yl)biphenyl-4-carboxamide hydrochloride]	0.19 µmol/L	2.4 nM
NC[C@H]1CC[C@H](C(=O)N[C@@H](Cc2ccc(-c3ccc(C(=O)NC4CCNCC4)c(C(F)(F)F)c3)cc2)C(=O)Nc2ccc(-c3nn[nH]n3)cc2)CC1 [Example 120, 4′-[(2S)-2-({[trans-4-(Aminomethyl)cyclohexyl]carbonyl}amino)-3-oxo-3-{[4-(2H-tetrazol-5-yl)phenyl]amino}propyl]-N-(piperidin-4-yl)-3-(trifluoromethyl)biphenyl-4-carboxamide hydrochloride]	0.14 µmol/L	6.7 nM
COC(=O)C(F)(F)C(F)(F)c1n[nH]c(-c2ccc(NC(=O)[C@H](Cc3ccc(-c4ccc(C(=O)NC5CCNCC5)cc4C)cc3)NC(=O)[C@H]3CC[C@H](CN)CC3)cc2)n1 [Example 129, Methyl 3-{5-[4-({(2S)-2-({[trans-4-(aminomethyl)cyclohexyl]carbonyl}amino)-3-[2′-methyl-4′-(piperidin-4-ylcarbamoyl)biphenyl-4-yl]propanoyl}amino)phenyl]-1H-1,2,4-triazol-3-yl}-2,2,3,3-tetrafluoropropanoate hydrochloride]	0.09 µmol/L	1.8 nM
Cc1cc(C(=O)NC2CCC(N(C)C)CC2)ccc1-c1ccc(C[C@H](NC(=O)[C@H]2CC[C@H](CN)CC2)C(=O)Nc2ccc(-c3nn[nH]n3)c(F)c2)cc1 (stereo partly drawn) [Example 63, 4′-[(2S)-2-({[trans-4-(Aminomethyl)cyclohexyl]carbonyl}amino)-3-{[3-fluoro-4-(2H-tetrazol-5-yl)phenyl]amino}-3-oxopropyl]-N-[4-(dimethylamino)cyclohexyl]-2-methylbiphenyl-4-carboxamide hydrochloride]	0.01 µmol/L	2.1 nM
Cc1cc(C(=O)NC2CCNCC2)ccc1-c1ccc(C[C@H](NC(=O)[C@H]2CC[C@H](CN)CC2)C(=O)Nc2ccc3[nH]c(C(F)(F)C(F)(F)F)nc3c2)cc1 [Example 57, 4′-[(2S)-2-({[trans-4-(Aminomethyl)cyclohexyl]carbonyl}amino)-3-oxo-3-{[2-(pentafluoroethyl)-1H-benzimidazol-5-yl]amino}propyl]-2-methyl-N-(piperidin-4-yl)biphenyl-4-carboxamide hydrochloride]	0.44 µmol/L	8.4 nM
Cc1cc(C(=O)NC2CCNCC2)ccc1-c1ccc(C[C@H](NC(=O)[C@H]2CC[C@H](CN)CC2)C(=O)Nc2ccc3c(=O)[nH][nH]c3c2)cc1 [Example 22, 4′-{(2S)-2-({[trans-4-(Aminomethyl)cyclohexyl]carbonyl}amino)-3-oxo-3-[(3-oxo-2,3-dihydro-1H-indazol-6-yl)amino]propyl}-2-methyl-N-(piperidin-4-yl)biphenyl-4-carboxamide hydrochloride]	0.06 µmol/L	15 nM
Cc1cc(C(=O)N[C@H]2CCNC2)ccc1-c1ccc(C[C@H](NC(=O)[C@H]2CC[C@H](CN)CC2)C(=O)Nc2ccc(-c3nnc(C(F)(F)C(F)(F)C(=O)O)[nH]3)cc2)cc1 [Example 153, 3-[5-(4-{[(2S)-2-({[trans-4-(Aminomethyl)cyclohexyl]carbonyl}amino)-3-{2′-methyl-4′-[(3S)-pyrrolidin-3-ylcarbamoyl]biphenyl-4-yl}propanoyl]amino}phenyl)-4H-1,2,4-triazol-3-yl]-2,2,3,3-tetrafluoropropanoic acid hydrochloride]	0.08 µmol/L	1.8 nM
Cc1cc(C(=O)NC2CCN(C(C)C)CC2)ccc1-c1ccc(C[C@H](NC(=O)[C@H]2CC[C@H](CN)CC2)C(=O)Nc2ccc(-c3nn[nH]n3)cc2)cc1 [Example 40, 4′-[(2S)-2-({[trans-4-(Aminomethyl)cyclohexyl]carbonyl}amino)-3-oxo-3-{[4-(2H-tetrazol-5-yl)phenyl]amino}propyl]-N-(1-isopropylpiperidin-4-yl)-2-methylbiphenyl-4-carboxamide hydrochloride]	0.11 µmol/L	3.6 nM
Cc1c(C(=O)NC2CCNCC2)ccc(-c2ccc(C[C@H](NC(=O)[C@H]3CC[C@H](CN)CC3)C(=O)Nc3ccc(-c4nn[nH]n4)cc3)cc2)c1C [Example 123, 4′-[(2S)-2-({[trans-4-(Aminomethyl)cyclohexyl]carbonyl}amino)-3-oxo-3-{[4-(2H-tetrazol-5-yl)phenyl]amino}propyl]-2,3-dimethyl-N-(piperidin-4-yl)biphenyl-4-carboxamide hydrochloride]	0.02 µmol/L	2.5 nM
Cc1cc(-c2ccc(C[C@H](NC(=O)[C@H]3CC[C@H](CN)CC3)C(=O)Nc3ccc(-c4nnn[nH]4)cc3)cc2)ccc1C(=O)NC1CC1 [Example 95, 4′-[(2S)-2-({[trans-4-(Aminomethyl)cyclohexyl]carbonyl}amino)-3-oxo-3-{[4-(1H-tetrazol-5-yl)phenyl]amino}propyl]-N-cyclopropyl-3-methylbiphenyl-4-carboxamide hydrochloride]	0.33 µmol/L	2.4 nM
Cc1cc(C(=O)NC2CCNCC2)ccc1-c1ccc(C[C@H](NC(=O)[C@H]2CC[C@H](CN)CC2)C(=O)Nc2ccc3nc(-n4cccn4)[nH]c3c2)cc1 [Example 60, 4′-[(2S)-2-({[trans-4-(Aminomethyl)cyclohexyl]carbonyl}amino)-3-oxo-3-{[2-(1H-pyrazol-1-yl)-1H-benzimidazol-6-yl]amino}propyl]-2-methyl-N-(piperidin-4-yl)biphenyl-4-carboxamide hydrochloride]	0.63 µmol/L	45 nM
